Here are results for 14 compounds from PubChem BioAssay AID1963443 (Molecular Pharmacology Branch, DTP, NCI, 2024).

Several values for one entry are separate records, joined by “and”; a condition that tells them apart may be missing. Equal values may be shown once.

The test has as its system MDA-MB-231 complex spheroids, growth inhibition. In words: Anticancer human tumor MDA-MB-231 cell line growth inhibition [Asc].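 On all read-outs here: spheroids exposed to compounds for 7 days.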 As to conditions: for viability, T/C: stronger effect = lower value. The protocol:
Multicellular complex tumor spheroid response to apoptosis pathway targeting inhibitors Alrizomadlin, Pelcitoclax, and Dasminapant in combination with a variety of drugs and investigational agents in selected tumor cell lines
The MDM2 inhibitor alrizomadlin, the Bcl-2/Bcl-xL inhibitor pelcitoclax, and the IAPs inhibitor dasminapant were evaluated both individually and in combination with standard of care and investigational anticancer small molecules within a complex spheroid model of solid tumors. . Complex spheroids include a stromal component modeled by human endothelial cells (HUVEC) and fibroblasts modeled by human mesenchymal stem cells (MSCs). The concentration ranges selected for each drug and investigational agent were based upon clinically achievable concentrations if the clinical Cmax of the agent was known.
Compounds. The drugs and investigational agents: alrizomadlin (APG-115; NSC831270), pelcitoclax (APG-1252; NSC835773), dasminapant (APG-1387;NSC834197), TAK-243 (NSC785004), copanlisib (NSC809693), olaparib (NSC753686), talazoparib (NSC767125), cobimetinib (NSC 768068), eltanexor (KPT-8602, NSC 794443), abemaciclib (NSC 768073), sotorasib (NSC818433), adagrasib (NSC 831453), MRTX-1133 (NSC 836407), Iadademestat (ORY1001, NSC 806812), and RMC-4630 (NSC839698), were obtained from the NCI Developmental Therapeutics Program Chemical Repository. The FDA-approved anticancer drug set is available from the Developmental Therapeutics Program at https://dtp.cancer.gov/organization/dscb/obtaining/available plates.htm. […] The stock solutions were prepared in dimethyl sulfoxide (DMSO, Sigma-Aldrich, St. Louis, MO, cat. D2650) at 800-fold the tested concentration and stored at -70 degrees C prior to their use. All drugs and investigational agents were tested over a range starting from a high concentration at or near the clinical Cmax and decreasing in half-log increments. If the clinical Cmax for an agent had not been determined, the highest concentration tested was 10 microM.
The patient-derived cancer (PDC) cell lines include five colon adenocarcinomas: 186277-243-T-J2-PDC, 616215-338-R-J1-PDC, 439559-082-T-J2-PDC, 463943-066-T-J2-PDC, and 519858-162-T-J1-PDC; three pancreatic carcinomas: 323965-272-R-J2-PDC, 521955-158-R6-J3-PDC, and 521955-158-R2-J5-PDC; two uterine sarcomas: 327498-152-R-J2-PDC and 993429-296-R-J1-PDC; two rhabdomyosarcomas: 755483-174-R-J1-PDC and 772245-204-R-J1-PDC; two soft tissue sarcomas: 126254-015-R-J1-PDC and 494315-158-R-J1-PDC; two malignant fibrous histiocytomas: 317291-083-R-J1-PDC and 596521-263-R-J1-PDC; two breast carcinomas: 171881-019-R-J1-PDC and 885512-296-R-J2-PDC; and one ovarian carcinoma: 6556581-035-R-J-PDC were obtained from the NCI PDMR, (https://pdmr.cancer.gov). The established cell lines HSSY-2 synovial sarcoma (RRID:CVCL 8719), SYO-1 synovial sarcoma (RRID:CVCL_7146), MPNST malignant peripheral neural sheath tumor were obtained from the Sloan Kettering Institute. The following established cell lines were purchased from the American Type Culture Collection (ATCC, Manassas, VA), Sor the received from the NCI repository:, PANC-1 pancreatic carcinoma (CRL-1469, RRID:CVCL_0480), OVCAR-5 ovarian carcinoma (RRID:CVCL_1628), OVCAR-8 ovarian carcinoma (RRID:CVCL_1629), , MCF-7 breast carcinoma (CRL-12584, RRID:CVCL_0031), MDA-MB-231 breast carcinoma (CRL-12532, RRID:CVCL_0062), NCI-H1876 small cell lung carcinoma (CRL-5902, RRID:CVCL_1503), NCI-H510A small cell lung carcinoma (HTB-184, RRID:CVCL_1565), NCI-H1417 (CRL-5869, RRID:CVCL_1469), and NCI-H196 small cell lung carcinoma (CRL-5823, RRID:CVCL_1509). Dr. Peter Houghton (Greehey Children's Cancer Research Institute, University of Texas Health Science Center, San Antonio, TX) provided Rh-18 rhabdomyosarcoma (RRID:CVCL_1659). Pooled donor human umbilical vein endothelial cells (HUVEC, Lonza, cat. CC-2519) and human mesenchymal stem cells (hMSC, Lonza, cat. PT-2501) were purchased from Lonza (Walkersville, MD).
Cell Culture. […]

The mark [1] stands for this setting: compound alone, run of 10/11/2022.

Take `C#Cc1c(F)ccc2cc(O)cc(-c3ncc4c(N5CC6CCC(C5)N6)nc(OCC56CCCN5CC(F)C6)nc4c3F)c12` (stereo unspecified): the viability, T/C reads like this: (compound 0.0316 µM) 120% and 100% and 106%; (compound 0.1 µM) 95.9% and 97.5% and 97.1%; (compound 0.316 µM) 111% and 98.8% and 91.7%; (compound 1 µM) 66.2% and 72.6% and 72.7%; (compound 3.16 µM) 48.7% and 64.1% and 62.1%; (compound 10 µM) 35.2% and 51.7% and 50.2%. Moreover, the IC50 (curve of compound) was 2.17 µM and > 10 µM.
In the case of `C=C(F)C(=O)N1CCN(c2nc(OCC3CCCN3C)nc3c2CCN(c2cccc4cccc(Cl)c24)C3)CC1CC#N` (stereo unspecified), the viability, T/C by setting is: (compound 0.0316 µM) 101% (2×) and 104%; (compound 0.1 µM) 103% and 99.7% and 93.1%; (compound 0.316 µM) 103% and 98.3% and 110%; (compound 1 µM) 101% and 94.9% and 103%; (compound 3.16 µM) 54.9% and 51.6% and 77.3%; (compound 10 µM) 0.35% and 0.45% and 1.25%. For the setting “curve of compound”, the half-maximal inhibitory concentration (IC50) was 3.51 µM and 3.28 µM and 4.78 µM.
Consider `C=CC(=O)N1CCN(c2nc(=O)n(-c3c(C)ccnc3C(C)C)c3nc(-c4c(O)cccc4F)c(F)cc23)C(C)C1` (stereo unspecified), for which the viability, T/C is, setting by setting: (compound 0.0316 µM) 101% and 102% and 103%; (compound 0.1 µM) 104% and 105% and 103%; (compound 0.316 µM) 106% (2×) and 107%; (compound 1 µM) 107% and 109% and 111%; (compound 3.16 µM) 119% and 117% and 113%; (compound 10 µM) 119% and 121% and 110%. For the same compound, the IC50 (curve of compound) was more than 10 µM.
Consider `CCN1C(C(=O)NC23CCC(C(=O)O)(CC2)CC3)C(c2cccc(Cl)c2F)C2(C(=O)Nc3cc(Cl)ccc32)C12CCCCC2` (stereo unspecified), for which the viability, T/C (compound 0.00949 µM) was 96.1% and 106%; the viability, T/C (compound 0.03 µM) is 97.5% [middle of 15 runs]; the viability, T/C (compound 0.0949 µM) was 104% [middle of 15 runs]; the viability, T/C (compound 0.3 µM) is 105% [middle of 15 runs]; the viability, T/C (compound 0.949 µM) is 112% [middle of 15 runs]. The half-inhibitory concentration (IC50) by setting is: under setting [1], more than 3 µM; (curve of compound) more than 3 µM.
As for `CCN1CCN(Cc2ccc(Nc3ncc(F)c(-c4cc(F)c5nc(C)n(C(C)C)c5c4)n3)nc2)CC1`, the viability, T/C runs as follows: (compound 0.00316 µM) 91.9% and 79.5% and 77%; (compound 0.01 µM) 92.6% and 86.9% and 80%; (compound 0.0316 µM) 78.5% and 79.9% and 88.6%; (compound 0.1 µM) 64.9% and 54.5% and 74.4%; (compound 0.316 µM) 51.7% and 48% and 64.4%; (compound 1 µM) 50.2% and 48.8% and 72%. For the same compound, the half-inhibitory concentration (IC50) (curve of compound) was 0.882 µM and 0.238 µM and > 1 µM.
For the compound `CNC(C)C(=O)NC1CN(S(=O)(=O)c2cccc(S(=O)(=O)N3CCC4CCC(C(=O)NC(c5ccccc5)c5ccccc5)N4C(=O)C(NC(=O)C(C)NC)C3)c2)CCC2CCC(C(=O)NC(c3ccccc3)c3ccccc3)N2C1=O` (stereo unspecified), the viability, T/C is, setting by setting: (compound 0.00316 µM) 5.11% and 4.58% and 5.25%; (compound 0.01 µM) 2.25% [middle of 14 runs]; (compound 0.0316 µM) 1.55% [middle of 14 runs]; (compound 0.1 µM) 1.38% [middle of 12 runs]. Moreover, the 50% inhibitory concentration (IC50) was less than 0.01 µM (compound alone, run of 10/24/2022); less than 0.00316 µM (compound alone, run of 11/15/2022); less than 0.00316 µM (curve of compound).
`COc1c(OCCCN2CCOCC2)ccc2c3n(c(=NC(=O)c4cnc(N)nc4)nc12)CCN3`: the viability, T/C is, setting by setting: (compound 0.00316 µM) 83.7% and 92% and 96.1%; (compound 0.01 µM) 85.2% and 80.5% and 92.2%; (compound 0.0316 µM) 64.8% and 66.8% and 75.9%; (compound 0.1 µM) 47.6% and 48.4% and 60%; (compound 0.316 µM) 36.6% and 36.7% and 45.5%; (compound 1 µM) 32% and 32.1% and 41.6%. Under “curve of compound”, the 50% inhibitory concentration (IC50) was 0.0825 µM and 0.0916 µM and 0.226 µM.
Take `Cc1c(S(C)(=O)=O)c(-c2cc(F)cc(N3CCN(c4ccc(NS(=O)(=O)c5ccc(NC(CCN6CCC(C(=O)OCCCP(=O)(O)O)CC6)CSc6ccccc6)c(S(=O)(=O)C(F)(F)F)c5)cc4)CC3)c2)c(-c2ccc(Cl)cc2)n1C(C)C` (stereo unspecified): the viability, T/C (compound 0.1 µM) was 96.4% [middle of 14 runs]; the viability, T/C (compound 0.316 µM) is 105% [middle of 14 runs]; the viability, T/C (compound 1 µM) was 98.3% [middle of 14 runs]; the viability, T/C (compound 3.16 µM) was 98.5% [middle of 14 runs]; the viability, T/C (compound 10 µM) is 95% [middle of 14 runs]. Under setting [1], the half-inhibitory concentration (IC50) was more than 10 µM.
Consider `Cc1nc(N2CCC3(CC2)COC(C)C3N)c(CO)nc1Sc1ccnc(N)c1Cl` (stereo unspecified), for which the viability, T/C is 122% and 98.3% and 98% (compound 0.00949 µM); 117% and 93.5% and 101% (compound 0.03 µM); 111% and 94.2% and 94.4% (compound 0.0949 µM); 63.3% and 47.9% and 61.2% (compound 0.3 µM); 3.21% and 2.3% and 2.69% (compound 0.949 µM); 0.89% and 1.08% and 0.76% (compound 3 µM). The IC50 (curve of compound) was 0.386 µM and 0.285 µM and 0.373 µM.
As to `Cn1ncnc1[C@H]1c2n[nH]c(=O)c3cc(F)cc(c23)N[C@@H]1c1ccc(F)cc1`, the viability, T/C was 101% and 114% and 108% (compound 0.000316 µM); 100% and 110% and 86.8% (compound 0.001 µM); 92.4% and 90.3% and 77.6% (compound 0.00316 µM); 91.5% and 85.7% and 87.9% (compound 0.01 µM); 89.1% and 103% and 89.5% (compound 0.0316 µM); 84.4% and 100% and 74.3% (compound 0.1 µM). For the same compound, the IC50 (curve of compound) is more than 0.1 µM.
Consider `NC(=O)C(=Cn1cnc(-c2cc(C(F)(F)F)cc(C(F)(F)F)c2)n1)c1cncnc1`, for which the viability, T/C (compound 0.000949 µM) is 95.7% and 87.8% and 73.5%; the viability, T/C (compound 0.003 µM) is 92.4% and 95.1% and 81.3%; the viability, T/C (compound 0.00949 µM) is 84.7% and 87.1% and 84.5%; the viability, T/C (compound 0.03 µM) is 57.8% and 56.5% and 60.4%; the viability, T/C (compound 0.0949 µM) was 50.5% and 47% and 48.1%; the viability, T/C (compound 0.3 µM) was 14.4% and 21.2% and 21.8%. Also, the IC50 (curve of compound) is 0.0724 µM and 0.0615 µM and 0.0749 µM.
On to `NC1CCC(NC2CC2c2ccccc2)CC1` (stereo unspecified), for which the viability, T/C reads like this: (compound 0.000316 µM) 102% and 98.5% and 104%; (compound 0.001 µM) 108% and 99% and 105%; (compound 0.00316 µM) 105% and 98.7% and 107%; (compound 0.01 µM) 105% and 98.6% and 101%; (compound 0.0316 µM) 103% and 96.8% and 107%; (compound 0.1 µM) 104% and 98.3% and 99.8%. In addition, under “curve of compound”, the concentration for half-maximal inhibition (IC50) is more than 0.1 µM.
For `O=C(c1cc(Cc2n[nH]c(=O)c3ccccc23)ccc1F)N1CCN(C(=O)C2CC2)CC1`, the viability, T/C runs as follows: (compound 0.0316 µM) 95.2% and 99.3% and 106%; (compound 0.1 µM) 97.2% and 86.9% and 110%; (compound 0.316 µM) 92.7% and 75.9% and 84.1%; (compound 1 µM) 90.8% and 88.9% and 83.6%; (compound 3.16 µM) 87% and 88.3% and 49%. Under “curve of compound”, the concentration for half-maximal inhibition (IC50) was > 10 µM and 3.18 µM.
Take `O=C(c1ccc(F)c(F)c1Nc1ccc(I)cc1F)N1CC(O)([C@@H]2CCCCN2)C1`: the viability, T/C was 86.9% and 79.8% and 88.6% (compound 0.00316 µM); 56.7% and 67.7% and 55.5% (compound 0.01 µM); 47.7% and 58.3% and 33.5% (compound 0.0316 µM); 43.8% and 50.7% and 21.9% (compound 0.1 µM); 29.6% and 30.4% and 22.2% (compound 0.316 µM); 2.86% and 5.09% and 7.27% (compound 1 µM). The IC50 (curve of compound) is 0.037 µM and 0.0831 µM and 0.0136 µM.

As a reminder, the viability, T/C is the result in the treated group divided by that in the control group, in per cent. For orientation: IC50 means the concentration needed to halve the response being measured.
